From the supplement of paper PMC11061612

Key:
[1] = compound: CN(CC[C@H](CSC1=CC=CC=C1)NC2=C(C=C(C=C2)S(=O)(=O)NC(=O)C3=CC=C(C=C3)N4CCC(CC4)[C@H](C5=CC=CC=C5C6=CC=C(C=C6)Cl)O)S(=O)(=O)C(F)(F)F)CCO [AZD4320]; details: max 1 µM
Outline: (§1)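 Plates with 1536 wells received cancer cell lines in 7.5 μl of DMEM/F12 or RPMI containing 10% FBS. After 24 hours at 37°C and 5% CO2, cells were dosed for 72 hours with final DMSO typically 0.2%, and viability was read by CellTiter-Glo 2.0 luminescence scaled between blank-well and DMSO-well means. The single-agent IC50 was taken from a logistic fit of the dose responses made with a non-linear mixed effects model, that logistic curve having two parameters.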

[2] = compound: C[C@@H](Oc1cc(-c2cnn(C3CCNCC3)c2)cnc1N)c1c(Cl)ccc(F)c1Cl [Crizotinib]; details: max 10 µM
Outline: as §1

[3] = compound: Cn1cnc2c(F)c(Nc3ccc(Br)cc3Cl)c(C(=O)NOCCO)cc21 [Selumetinib]; details: max 10 µM
Outline: as §1

[4] = compound: Cc1nc(-c2cn3c(n2)-c2ccc(-c4cnn(C(C)(C)C(N)=O)c4)cc2OCC3)n(C(C)C)n1 [Taselisib]; details: max 10 µM
Outline: as §1

[5] = compound: C[C@@H](Nc1cc(F)cc(F)c1)c1cc(C(=O)N(C)C)cc2c(=O)cc(N3CCOCC3)oc12 [AZD8186]; details: max 3 µM
Outline: as §1

[6] = compound: NC1(c2ccc(-c3nc4ccn5c(=O)[nH]nc5c4cc3-c3ccccc3)cc2)CCC1 [MK-2206]; details: max 10 µM
Outline: as §1

[7] = compound: CS(=O)(=O)CCNCc1ccc(-c2ccc3ncnc(Nc4ccc(OCc5cccc(F)c5)c(Cl)c4)c3c2)o1 [Lapatinib]; details: max 10 µM
Outline: as §1

[8] = compound: C[C@@H](c1ccc2nccn2c1)n1nnc2ncc(-c3cnn(C)c3)nc21 [Savolitinib]; details: max 1 µM
Outline: as §1

[9] = compound: CC(=O)Nc1cccc(-n2c(=O)n(C3CC3)c(=O)c3c(Nc4ccc(I)cc4F)n(C)c(=O)c(C)c32)c1 [Trametinib]; details: max 1 µM
Outline: as §1

[10] = compound: CCc1c2c(nc3ccc(O)cc13)-c1cc3c(c(=O)n1C2)COC(=O)[C@]3(O)CC [SN-38]; details: max 0.3 µM
Outline: as §1

[11] = compound: CCN(CCO)CCCOc1ccc2c(Nc3cc(CC(=O)Nc4cccc(F)c4)[nH]n3)ncnc2c1 [AZD2811]; details: max 1 µM
Outline: as §1

[12] = compound: CN(C)CCCOc1ccc(-c2ccc3ncc4c(c3c2)n(C2CCOCC2)c(=O)n4C)cn1 [AZD0156]
Outline: as §1

[13] = compound: COc1cc2ncnc(Nc3ccc(F)c(Cl)c3)c2cc1OCCCN1CCOCC1 [Gefitinib]; details: max 10 µM
Outline: as §1

[14] = compound: CC1=C(C(=CC=C1)Cl)NC(=O)C2=CN=C(S2)NC3=CC(=NC(=N3)C)N4CCN(CC4)CCO [Dasatinib]; details: max 2 µM
Outline: as §1

[15] = compound: CC1=CN2[C@@H](C1)C=NC3=CC(=C(C=C3C2=O)OC)OCCCCCOC4=C(C=C5C(=C4)N=C[C@@H]6CC(=CN6C5=O)C)OC [SG3199]; details: max 0.001 µM
Outline: as §1

[16] = compound: C[C@@H]1COCCN1C2=NC(=NC(=C2)C3(CC3)[S@](=N)(=O)C)C4=C5C=CNC5=NC=C4 [AZD6738]; details: max 10 µM
Outline: as §1

[17] = compound: C=CCn1c(=O)c2cnc(Nc3ccc(N4CCN(C)CC4)cc3)nc2n1-c1cccc(C(C)(C)O)n1 [AZD1775]
Outline: as §1

[18] = compound: Cc1c2c(nn1C)CSCc1cc(n(C)n1)CSc1cc(c3ccccc3c1)OCCCc1c(C(=O)O)n(C)c3c-2c(Cl)ccc13 [AZD5991]; details: max 1 µM
Outline: as §1

[19] = compound: CC(=O)c1c(C)c2cnc(Nc3ccc(N4CCNCC4)cn3)nc2n(C2CCCC2)c1=O [Palbociclib]; details: max 10 µM
Outline: as §1

[20] = compound: COc1cccc2c1C(=O)c1c(O)c3c(c(O)c1C2=O)C[C@@](O)(C(=O)CO)C[C@@H]3O[C@H]1C[C@H](N)[C@H](O)[C@H](C)O1 [Doxorubicin]; details: max 1 µM
Outline: as §1

[21] = compound: CC1(C)CCC(CN2CCN(c3ccc(C(=O)NS(=O)(=O)c4ccc(NCC5CCOCC5)c([N+](=O)[O-])c4)c(Oc4cnc5[nH]ccc5c4)c3)CC2)=C(c2ccc(Cl)cc2)C1 [Venetoclax]; details: max 1 µM
Outline: as §1

[22] = compound: COc1cccc(OCCCN)c1-c1cc(Nc2cnc(C#N)cn2)n[nH]1 [Prexasertib]; details: max 1 µM
Outline: as §1

[23] = compound: O=C(c1cc(Cc2n[nH]c(=O)c3ccccc23)ccc1F)N1CCN(C(=O)C2CC2)CC1 [Olaparib]; details: max 10 µM
Outline: as §1

[24] = compound: CC(C)n1c(=O)n(C)c2cnc3cc(F)c(-c4ccc(OCCCN5CCCCC5)nc4)cc3c21 [AZD1390]; details: max 0.3 µM
Outline: as §1

[25] = compound: COc1cc(Nc2ncc3c(n2)-c2ccc(Cl)cc2C(c2c(F)cccc2OC)=NC3)ccc1C(=O)O [Alisertib]; details: max 10 µM
Outline: as §1

[26] = compound: Cc1cc2ncnn2cc1Nc1ncc2c(n1)n(C1CCOCC1)c(=O)n2C [AZD7648]; details: max 10 µM
Outline: as §1

[27] = compound: C1CN(CCC1(C(=O)N[C@@H](CCO)C2=CC=C(C=C2)Cl)N)C3=NC=NC4=C3C=CN4 [Capivasertib]; details: max 10 µM
Outline: as §1

[28] = compound: COc1nnc2ccc(N3CCC(c4ccc(OCCN5CCN(C)C(=O)[C@H]5C)cc4)CC3)nn12 [AZD5153]; details: max 1 µM
Outline: as §1

Cell Line | IC50, cell viability 72 h [1] | IC50, cell viability 72 h [2] | IC50, cell viability 72 h [3] | IC50, cell viability 72 h [4] | IC50, cell viability 72 h [5] | IC50, cell viability 72 h [6] | IC50, cell viability 72 h [7] | IC50, cell viability 72 h [8] | IC50, cell viability 72 h [9] | IC50, cell viability 72 h [10] | IC50, cell viability 72 h [11] | IC50, cell viability 72 h ([12]; max 3 µM) | IC50, cell viability 72 h [13] | IC50, cell viability 72 h [14] | IC50, cell viability 72 h [15] | IC50, cell viability 72 h [16] | IC50, cell viability 72 h ([17]; max 3 µM) | IC50, cell viability 72 h [18] | IC50, cell viability 72 h [19] | IC50, cell viability 72 h [20] | IC50, cell viability 72 h [21] | IC50, cell viability 72 h [22] | IC50, cell viability 72 h [23] | IC50, cell viability 72 h [24] | IC50, cell viability 72 h [25] | IC50, cell viability 72 h [26] | IC50, cell viability 72 h [27] | IC50, cell viability 72 h [28] | IC50, cell viability 72 h ([12]; max 1 µM) | IC50, cell viability 72 h ([17]; max 1 µM)
KYSE-150 (Esophageal Squamous Cell Carcinoma) | > 1000 nM | 4280 nM | > 10000 nM | 1340 nM | > 3000 nM | > 10000 nM | 3190 nM | > 1000 nM | 498 nM | 117 nM | > 1000 nM | > 3000 nM | > 10000 nM | > 2000 nM | > 1 nM | > 10000 nM | 1150 nM | > 1000 nM | > 10000 nM | 158 nM | > 1000 nM | > 1000 nM | > 10000 nM | > 300 nM | 5850 nM | > 10000 nM | > 10000 nM | 420 nM | – | –
NCI-H513 (Other Solid Carcinomas) | > 1000 nM | > 10000 nM | > 10000 nM | > 10000 nM | > 3000 nM | > 10000 nM | > 10000 nM | > 1000 nM | 643 nM | 210 nM | > 1000 nM | > 3000 nM | > 10000 nM | > 2000 nM | > 1 nM | > 10000 nM | > 3000 nM | > 1000 nM | > 10000 nM | > 1000 nM | > 1000 nM | > 1000 nM | > 10000 nM | > 300 nM | > 10000 nM | > 10000 nM | > 10000 nM | > 1000 nM | – | –
NCI-H2405 (Lung Adenocarcinoma) | > 1000 nM | > 10000 nM | > 10000 nM | > 10000 nM | > 3000 nM | > 10000 nM | > 10000 nM | > 1000 nM | 430 nM | > 300 nM | > 1000 nM | > 3000 nM | > 10000 nM | > 2000 nM | > 1 nM | > 10000 nM | > 3000 nM | > 1000 nM | > 10000 nM | > 1000 nM | > 1000 nM | > 1000 nM | > 10000 nM | > 300 nM | > 10000 nM | > 10000 nM | > 10000 nM | > 1000 nM | – | –
HuP-T3 (Pancreatic Carcinoma) | > 1000 nM | > 10000 nM | > 10000 nM | > 10000 nM | > 3000 nM | – | > 10000 nM | > 1000 nM | 567 nM | 235 nM | > 1000 nM | > 3000 nM | > 10000 nM | 791 nM | > 1 nM | > 10000 nM | 1610 nM | > 1000 nM | > 10000 nM | > 1000 nM | > 1000 nM | 166 nM | > 10000 nM | > 300 nM | > 10000 nM | > 10000 nM | > 10000 nM | > 1000 nM | – | –
EW-13 (Ewing's Sarcoma) | 270 nM | > 10000 nM | > 10000 nM | > 10000 nM | > 3000 nM | – | > 10000 nM | > 1000 nM | > 1000 nM | 8.64 nM | > 1000 nM | – | > 10000 nM | > 2000 nM | > 1 nM | > 10000 nM | – | > 1000 nM | > 10000 nM | 467 nM | > 1000 nM | 829 nM | > 10000 nM | > 300 nM | > 10000 nM | > 10000 nM | > 10000 nM | > 1000 nM | > 1000 nM | > 1000 nM
NCI-H2347 (Lung Adenocarcinoma) | > 1000 nM | > 10000 nM | > 10000 nM | > 10000 nM | > 3000 nM | > 10000 nM | > 10000 nM | > 1000 nM | > 1000 nM | > 300 nM | > 1000 nM | > 3000 nM | > 10000 nM | > 2000 nM | > 1 nM | > 10000 nM | > 3000 nM | > 1000 nM | > 10000 nM | > 1000 nM | > 1000 nM | > 1000 nM | > 10000 nM | > 300 nM | > 10000 nM | > 10000 nM | > 10000 nM | > 1000 nM | – | –
A704 (Kidney Carcinoma) | > 1000 nM | > 10000 nM | > 10000 nM | > 10000 nM | 1540 nM | – | 8790 nM | > 1000 nM | > 1000 nM | 274 nM | > 1000 nM | > 3000 nM | > 10000 nM | 110 nM | > 1 nM | > 10000 nM | 2510 nM | > 1000 nM | > 10000 nM | > 1000 nM | > 1000 nM | > 1000 nM | > 10000 nM | > 300 nM | 5350 nM | > 10000 nM | > 10000 nM | 538 nM | – | –
EMC-BAC-2 (Non-Small Cell Lung Carcinoma) | > 1000 nM | > 10000 nM | > 10000 nM | 2320 nM | > 3000 nM | – | > 10000 nM | > 1000 nM | 198 nM | 169 nM | > 1000 nM | > 3000 nM | > 10000 nM | 995 nM | > 1 nM | > 10000 nM | > 3000 nM | 873 nM | > 10000 nM | 959 nM | > 1000 nM | > 1000 nM | > 10000 nM | > 300 nM | 5480 nM | > 10000 nM | > 10000 nM | 220 nM | – | –
